Assay type in all cases: in vivo
Assay [1] relates to type 2 diabetic db/db mice. Nature of the assay: Histological examination (H&E, trichrome, Safranin O) of ilium (femur) and lumbar vertebra 5, db/db mice. Conditions: adiporon 30 mg/kg/day, 4 weeks. Here is the method:
A leptin receptor-defective type 2 diabetic animal model (db/db mice) and a normal control group (db/m mice) were used, and the experiment was performed by dividing into 4 groups as follows: non-diabetic control group (dm cont, n=8), non-diabetic adiporon treatment group (dm+AdipoR, n=8), diabetic control group (db cont, n=8) and diabetic adiporon treatment group (db+AdipoR, n=8). The control group was fed a normal diet, and the adiporon treatment group was fed a diet comprising adiporon (30 mg/kg/day) for 4 weeks from 16 weeks of age. During the experiment, body weight was measured every week, fasting blood glucose was measured using an Accu-Chek meter (Roche Diagnostics, St. Louis, MO) every 2 weeks after blood was collected from the tail vein, and glycated hemoglobin (HbA1c) was measured every 4 weeks using a […] automatic analyzer (Bayer healthcare LLC, IN) after blood was collected from the tail vein. The temperature and humidity of the breeding room were maintained at 20˜25° C. and 50˜60%, respectively, and the lights were turned on and off at 12-hour intervals. After removing tissues of the femur and L5 lumbar vertebrae, some of them were fixed in 10% formalin for immunostaining and decalcified. Thereafter, after neutralization with 0.5M Phosphate buffer (pH 7.4), washing, and embedding in paraffin. Tissue sections were cut to a thickness of 5 μm, and hematoxylin and eosin staining (H&E staining), trichrome staining, and Safranin O staining were performed. In bone tissue, double immunofluorescence staining method was performed using anti-adiponectin receptor 1/2 antibody, anti-perilipin-1 antibody, anti-RANKL antibody, anti-TNF-α antibody, and ApopTag Fluorescein In Situ Apoptosis Detection Kit (Chemicon International, Temecula, CA) and expression was observed using a confocal microscope.

In assay [2] the test system is ovariectomized C57BL/6 mice. Nature of the assay: Growth plate staining (trichrome, Safranin O) of ilium, ovariectomized mice. Conditions: 6 weeks. Here is the method: 7 weeks after ovariectomization or sham surgery of 7-week-old C57BL/6 mice, normal feed group (adiporon non-administered group; control group) administration group, 2.5 mg/kg day or 25 mg/kg day, respectively Feed comprising adiporon was consumed for 6 weeks from 14 weeks of age. Body weight was measured every week during the experiment period, and the experiment was conducted after 6 weeks of administration. […] Thereafter, after neutralization with 0.5M Phosphate buffer (pH 7.4), washing, and embedding in paraffin. Tissue sections were cut to a thickness of 5 μm, and hematoxylin and eosin staining (H&E staining), trichrome staining, and Safranin O staining were performed. In bone tissue, double immunofluorescence staining method was performed using anti-adiponectin receptor 1/2 antibody, anti-perilipin-1 antibody, anti-RANKL antibody, anti-TNF-α antibody, and ApopTag Fluorescein In Situ Apoptosis Detection Kit (Chemicon International, Temecula, CA) and expression was observed using a confocal microscope.

For assay [3], the system named is ovariectomized C57BL/6 mice. Nature of the assay: Serum ACP5/TRAP, osteocalcin and urine deoxypyridinoline by ELISA, ovariectomized mice. Conditions: for Increased concentration of deoxypyridinoline in urine: P<0.05. Here is the method: 7 weeks after ovariectomization or sham surgery of 7-week-old C57BL/6 mice, normal feed group (adiporon non-administered group; control group) administration group, 2.5 mg/kg day or 25 mg/kg day, respectively Feed comprising adiporon was consumed for 6 weeks from 14 weeks of age. Body weight was measured every week during the experiment period, and the experiment was conducted after 6 weeks of administration. In both experiments, blood collected from each mouse was allowed to stand at room temperature for 30 minutes, and then centrifuged at 3000 rpm for 15 minutes to obtain serum. Blood levels of tartrate-resistant acid phosphatase (TRAP/ACP5) and osterocalcin concentration were measured by ELISA. In addition, 8-hydroxy-deoxyguanosine, a DNA damage marker caused by oxidative stress, and isoprostane, a marker of oxidative stress caused by lipid peroxidation caused by free fatty acids, and deoxypyridinoline (DPP), which indicates the function of osteoclasts, were measured in 24-hour urine concentrations by ELISA method.
(In general: ELISA stands for enzyme-linked immunosorbent assay.)

For assay [4], the system named is type 2 diabetic db/db mice. In words: Body weight, blood biochemistry and 24-hour urine oxidative stress in diabetic osteoporosis model db/db mice. Here is the method: A leptin receptor-defective type 2 diabetic animal model (db/db mice) and a normal control group (db/m mice) were used, and the experiment was performed by dividing into 4 groups as follows: non-diabetic control group (dm cont, n=8), non-diabetic adiporon treatment group (dm+AdipoR, n=8), diabetic control group (db cont, n=8) and diabetic adiporon treatment group (db+AdipoR, n=8). The control group was fed a normal diet, and the adiporon treatment group was fed a diet comprising adiporon (30 mg/kg/day) for 4 weeks from 16 weeks of age. During the experiment, body weight was measured every week, fasting blood glucose was measured using an Accu-Chek meter (Roche Diagnostics, St. Louis, MO) every 2 weeks after blood was collected from the tail vein, and glycated hemoglobin (HbA1c) was measured every 4 weeks using a […] automatic analyzer (Bayer healthcare LLC, IN) after blood was collected from the tail vein. The temperature and humidity of the breeding room were maintained at 20˜25° C. and 50˜60%, respectively, and the lights were turned on and off at 12-hour intervals. In both experiments, blood collected from each mouse was allowed to stand at room temperature for 30 minutes, and then centrifuged at 3000 rpm for 15 minutes to obtain serum. Blood levels of tartrate-resistant acid phosphatase (TRAP/ACP5) and osterocalcin concentration were measured by ELISA. In addition, 8-hydroxy-deoxyguanosine, a DNA damage marker caused by oxidative stress, and isoprostane, a marker of oxidative stress caused by lipid peroxidation caused by free fatty acids, and deoxypyridinoline (DPP), which indicates the function of osteoclasts, were measured in 24-hour urine concentrations by ELISA method.

Where [5] appears, read: adiporon 2.5 or 25 mg/kg day, dose not distinguished, ELISA.
The mark [6] stands for this setting: db/db mice (type 2 diabetic), adiporon 30 mg/kg/day in diet for 4 weeks, mean ± SD.
[7] abbreviates: db/db mice, adiporon 30 mg/kg/day, 4 weeks, result in words.

For `Cl.O=C(COc1ccc(C(=O)c2ccccc2)cc1)NC1CCN(Cc2ccccc2)CC1` [adiporon], in assay [1] (ilium (femur)), the “Decrease in the ilium growth plate (thickness)” value is listed as “recovered”, the “Increase in adipose tissue in tissue” value is given as “recovered” and the “Increase in fibrosis in tissue” value is “recovered”. In assay [1] (vertebrae (lumbar vertebrae 5)), the “Increase in adipose tissue in tissue” value is on record as “reversed” and the “Increase in fibrosis in tissue” value is on record as “reversed”. In addition, in assay [2] (adiporon 2.5 mg/kg day), the “Decreased thickness of the iliac growth plate” value is on record as “increased”. In addition, the “Decreased thickness of the iliac growth plate” value in assay [2] (adiporon 25 mg/kg day) is “increased”. Also, the “Increased concentration of deoxypyridinoline in urine” value in assay [3] (adiporon 2.5 mg/kg day vs not administered) was “significantly reduced”. Further, the “Increased concentration of deoxypyridinoline in urine” value in assay [3] (adiporon 25 mg/kg day vs not administered) is “significantly reduced”. Also, in assay [3] (setting [5]), the “Decreased serum osteocalcin concentration” value is “reversed” and the “Serum ACP5/TRAP concentrations” value was “no such change”. In addition, in assay [4] (setting [6]), the Body wt is on record as 53 ± 4.8 g, the “Urinary 8-OHDG” value came to 74.5 ± 19.6 ng/24 h and the Urinary isoprostane turned out to be 19.3 ± 9.4 ng/24 h. The “Changes of body weight, blood glucose, glycated hemoglobin, blood total cholesterol, triglyceride, free fatty acid and blood adiponectin” value in assay [4] (db/db mice vs db/m, adiporon 30 mg/kg/day, 4 weeks, result in words) is recorded as “restored”. For the same molecule, in assay [4] (setting [7]), the “24-hour urine concentration of 8-hydroxy-deoxyguanosine (increase in db/db)” value is “improved the index increase” and the “24-hour urine concentration of isoprostane (increase in db/db)” value was “improved the index increase”.

(Values after patent publication US20240016788A1, “PHARMACEUTICAL COMPOSITION FOR PREVENTING OR TREATING DIABETIC AND POSTMENOPAUSAL OSTEOPOROSIS, CONTAINING ADIPORON” (PnP Biopharm Co., Ltd., priority 2020, published 2024).)
